Experimental findings from publication PMC12800093 (Nature Communications, 2025) are described below.

This assay deals with Mycobacterium tuberculosis complex (MTBC) clinical isolates. To be noted: 96 h.

Where a SMILES comes first, the peptide text is derived from it. [ ]: non-standard residue; d: D form.

Regarding `CC(C)[C@@H](NC(=O)[C@H](N)Cc1c[nH]c2ccccc12)C(=O)N[C@@H](C(=O)N[C@H](Cc1c[nH]c2ccccc12)C(=O)N[C@H](Cc1c[nH]cn1)C(=O)N[C@H](CCCNC(=N)N)C(=O)N[C@H](CCCNC(=N)N)C(=O)N[C@H](Cc1c[nH]c2ccccc12)C(=O)N[C@H](Cc1c[nH]c2ccccc12)C(=O)N[C@H](Cc1c[nH]cn1)C(=O)N[C@H](Cc1c[nH]c2ccccc12)C(=O)N[C@H](CCCNC(=N)N)C(=O)N[C@H](CCCCN)C(N)=O)C(C)C` [MAD1-RI] (H-[dW][dV][dV][dW][dH][dR][dR][dW][dW][dH][dW][dR][dK]-NH2), the “MICs against a panel of drug-resistant clinical Mtb isolates” value was no more than 40 µM.
